The source of these data is US4038317A, “O-aminoalkyl oximes” (Seperic, priority 1975, dated 1977).

Each structure is given as a SMILES string. Structures can show the parent of a compound that is named as a salt. Where two headings read alike, the source gives them in different places. A value given as a limit tells only on which side of the number the result lay.

One experiment concerns action of isoprenaline. Nature of the experiment: inhibition of the action of isoprenaline on cardiac parameters in anesthetized dog. The class given is in vivo. Conditions: Canis lupus familiaris, isoprenaline 0.02 micromole/kg. An excerpt: This beta-blocking activity is again apparent in vivo. […] The following Table sets forth the dosages which inhibit 50% of the effect of 0.02 micromole/kg of isoprenaline on blood pressure, on cardiac rhythm and on the contractile strength of the heart.

For experiment [1], the system named is isolated auricle of guinea-pig. Nature of the experiment: isolated auricle of guinea-pig: antagonism of isoprenaline (PA2). Type of experiment: cell-based. Conditions: Cavia porcellus, agonist isoprenaline, PA2 = cologarithm of antagonist concentration requiring twice as much agonist. The source says:
(§1) The following Table gives the PA2 determined with respect to this agonist (PA2 is the cologarithm of the antagonist concentration in the presence of which it is required to use twice as much agonist than in its absence to obtain the same effect; vide, on the subject; Calcul des PA2, Fiche Technique n° 16, J. Pharmacol. Paris, 1971, 2, 3, 373-380).

Experiment [2] concerns isolated trachea of guinea-pig. Nature of the experiment: isolated trachea of guinea-pig: antagonism of isoprenaline relaxation (PA2). The class given is cell-based. Conditions: Cavia porcellus, agonist isoprenaline, PA2 = cologarithm of antagonist concentration requiring twice as much agonist.
From the text: on the isolated trachea of guinea-pigs: they inhibit the relaxation due to the action of this same isoprenaline.
as §1

Where [3] appears, read: blood pressure, read-out: 50% inhibiting dosage of the action of isoprenaline: Blood pressure.
Setting [4] is: cardiac rhythm, read-out: 50% inhibiting dosage of the action of isoprenaline: Rhythm.
[5] abbreviates: contractile strength of the heart, read-out: 50% inhibiting dosage of the action of isoprenaline: Contractile strength.
The mark [6] stands for this setting: read-out: PA2 Chronotropic effect (converted).
[7] abbreviates: read-out: PA2 Inotropic effect (converted).

For `CC(C)(C)NCC(O)CON=C1c2ccccc2-c2ccccc21` (centres unmarked) [Example 1, 9-(3-tert.butylamino-2-hydroxypropoxy)imino-fluorene hydrochloride], the ED50 with action of isoprenaline (setting [3]) came out at 0.2 µmol/kg; in the experiment with action of isoprenaline (setting [4]) it was 3 µmol/kg; in the experiment with action of isoprenaline (setting [5]) it was 3 µmol/kg.
As for `CC(=NOCC(O)CNC(C)(C)C)c1ccc(Cl)cc1` (centres unmarked) [Example 2, 4-chloro-acetophenone-0-(3-tert.butylamino-2-hydroxy-propyl)oxime hydrochloride], the ED50 in the experiment with action of isoprenaline (setting [3]) is 1 µmol/kg; in the experiment with action of isoprenaline (setting [4]), greater than 10 µmol/kg; in the experiment on action of isoprenaline (setting [5]) it was 10 µmol/kg. In addition, the figures for the Kb in experiment [1] (setting [6]), in experiment [1] (setting [7]) and in experiment [2] were 26.3 nM, 37.2 nM and 245 nM, respectively.
As for `CC(C)NCC(O)CON=Cc1ccc2ccccc2c1` (centres unmarked) [Example 3, 2-naphthalene carbaldehyde-0-(3-isopropylamino-2-hydroxy-propyl)-oxime hydrochloride], the results for the Kb in experiment [1] (setting [6]), in experiment [1] (setting [7]) and in experiment [2] were 295 nM, 115 nM and 0.427 nM, respectively.
On to `CC(C)(C)NCC(O)CON=C(c1ccccc1)c1ccccc1` (centres unmarked) [Example 4, benzophenone-0-(3-tert.butylamino-2-hydroxy-propyl)-oxime hydrochloride], for which the Kb in experiment [1] (setting [6]) is 162 nM; in experiment [1] (setting [7]), 427 nM; in experiment [2], 11 nM.
On to `CC(C)NCC(O)CON=C1c2ccccc2-c2ccccc21` (centres unmarked) [Example 9], for which the ED50 with action of isoprenaline (setting [3]) was 1.3 µmol/kg; in the experiment on action of isoprenaline (setting [4]), greater than 17 µmol/kg; in the experiment on action of isoprenaline (setting [5]), greater than 17 µmol/kg. Also, the figures for the Kb in experiment [1] (setting [6]), in experiment [1] (setting [7]) and in experiment [2] were 40.7 nM, 79.4 nM and 166 nM, respectively.
Turning to `CC(C)NCC(O)CON=c1c2ccccc2oc2ccccc12` (centres unmarked) [Example 10], the figures for the Kb in experiment [1] (setting [6]), in experiment [1] (setting [7]) and in experiment [2] were 79.4 nM, 219 nM and 155 nM, respectively.
Regarding `CC(C)NCC(O)CON=C1CCc2ccccc21` (centres unmarked) [Example 12], the values for the Kb in experiment [1] (setting [6]) and in experiment [1] (setting [7]) were 363 nM and 513 nM, respectively.
Regarding `CC(=NOCC(O)CNC(C)C)c1ccccc1` (centres unmarked) [Example 13], the Kb is 229 nM in experiment [1] (setting [6]), 186 nM in experiment [1] (setting [7]) and 28.8 nM in experiment [2].
For the compound `CC(C)NCC(O)CON=C(c1ccccc1)c1ccccc1` (centres unmarked) [Example 14], the Kb was 162 nM in experiment [1] (setting [6]), 191 nM in experiment [1] (setting [7]) and 32.4 nM in experiment [2].
Regarding `CC(C)NCC(O)CON=C1CCCc2ccccc21` (centres unmarked) [Example 15], the Kb in experiment [1] (setting [6]) was 676 nM; in experiment [1] (setting [7]), 759 nM; in experiment [2], 12.6 nM.
On to `CC(C)NCC(O)CON=Cc1ccccc1` (centres unmarked) [Example 16], for which the Kb in experiment [1] (setting [6]) was 3020 nM; in experiment [1] (setting [7]), 2400 nM; in experiment [2], 129 nM.
For `CC(=NOCC(O)CNC(C)(C)C)c1ccc(C)cc1` (centres unmarked) [Example 17] the same measures were 14.8 nM, 13.8 nM and 12.9 nM.
Consider `CC(C)(C)NCC(O)CON=C1CCCc2ccccc21` (centres unmarked) [Example 18], for which the ED50 in the experiment with action of isoprenaline (setting [3]) was 0.05 µmol/kg; in the experiment with action of isoprenaline (setting [4]) it was greater than 1 µmol/kg; with action of isoprenaline (setting [5]), greater than 1 µmol/kg. Moreover, the Kb in experiment [1] (setting [6]) was 70.8 nM; in experiment [1] (setting [7]), 28.8 nM; in experiment [2], 0.631 nM.
Turning to `CC(C)(C)NCC(O)CON=Cc1ccccc1` (centres unmarked) [Example 19], the Kb is 550 nM in experiment [1] (setting [6]), 269 nM in experiment [1] (setting [7]) and 589 nM in experiment [2].
Take `CC(=NOCC(O)CNC(C)(C)C)c1ccccc1Cl` (centres unmarked) [Example 20]: the ED50 amounted to 0.07 µmol/kg with action of isoprenaline (setting [3]), 1 µmol/kg in the experiment with action of isoprenaline (setting [4]) and 0.7 µmol/kg in the experiment on action of isoprenaline (setting [5]). The Kb was 4.57 nM in experiment [1] (setting [6]), 4.27 nM in experiment [1] (setting [7]) and 13.8 nM in experiment [2].
Take `CC(=NOCC(O)CNC(C)(C)C)c1ccccc1` (centres unmarked) [Example 21]: the Kb in experiment [1] (setting [6]) is 200 nM; in experiment [1] (setting [7]) it was 117 nM; in experiment [2], 24 nM.
Taken in the same sequence, the figures for `COc1ccc(C(C)=NOCC(O)CNC(C)(C)C)cc1` (centres unmarked) [Example 22] were 14.1 nM, 11.5 nM and 1.82 nM.
For the compound `CC(=NOCC(O)CNC(C)(C)C)c1ccc([N+](=O)[O-])cc1` (centres unmarked) [Example 23], the figures for the ED50 in the experiment with action of isoprenaline (setting [3]), in the experiment on action of isoprenaline (setting [4]) and in the experiment on action of isoprenaline (setting [5]) were 0.1 µmol/kg, 3 µmol/kg and 3 µmol/kg, respectively. The Kb was 34.7 nM in experiment [1] (setting [6]), 25.1 nM in experiment [1] (setting [7]) and 28.8 nM in experiment [2].
Consider `CC(=NOCC(O)CNC(C)(C)C)c1ccccc1C` (centres unmarked) [Example 24], for which the Kb in experiment [1] (setting [6]) is 219 nM; in experiment [1] (setting [7]), 204 nM; in experiment [2] it was 12.6 nM.
For `CC(=NOCC(O)CNC(C)(C)C)c1ccc(Br)cc1` (centres unmarked) [Example 25] the same measures were 26.3 nM, 12.6 nM and 3.09 nM.
Taken in the same sequence, the figures for `CC(=NOCC(O)CNC(C)(C)C)c1cccc(C)c1` (centres unmarked) [Example 26] were 7.76 nM, 7.94 nM and 5.01 nM.
On to `CC(=NOCC(O)CNC(C)(C)C)c1ccc(N)cc1` (centres unmarked) [Example 27], for which the Kb in experiment [1] (setting [6]) is 22.9 nM; in experiment [1] (setting [7]) it was 14.5 nM; in experiment [2], 79.4 nM.
`CC(C)(C)NCC(O)CON=Cc1ccc2ccccc2c1` (centres unmarked) [Example 28]: the Kb is 35.5 nM in experiment [1] (setting [6]), 32.4 nM in experiment [1] (setting [7]) and 42.7 nM in experiment [2].
Regarding `CC(=NOCC(O)CNC(C)(C)C)c1ccc(C#N)cc1` (centres unmarked) [Example 31], the Kb in experiment [1] (setting [6]) is 120 nM; in experiment [1] (setting [7]), 123 nM; in experiment [2], 102 nM.
